Like-named read-outs stand apart in the source and are kept apart here.
Key:
[1] = molecular target: KRAS G12D (Homo sapiens (Human), UniProt P01116+P62937, G12D); assay: Ras-Raf (BRAF RBD) disruption / FRET / MOA assay, KRAS G12D; assay type: biochemical; conditions: Ras-Raf disruption/FRET/MOA assay; class symbols; read-out: KRAS G12D FRET data IC50
In short: (§1)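 Compounds, top final concentration 30 μM in 10-point 3-fold series, incubated 3 hours at 25° C with nucleotide-loaded Ras, cyclophilin A and BRAF RBD.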

[2] = molecular target: KRAS G12V (Homo sapiens (Human), UniProt P01116+P62937, G12V); assay: Ras-Raf (BRAF RBD) disruption / FRET / MOA assay, KRAS G12V; assay type: biochemical; conditions: read-out: IC50* KRAS G12V FRET data
In short: as §1

[3] = molecular target: KRAS G13D (Homo sapiens (Human), UniProt P01116+P62937, G13D); assay: Ras-Raf (BRAF RBD) disruption / FRET / MOA assay, KRAS G13D; assay type: biochemical; conditions: read-out: IC50* KRAS G13D FRET data
In short: as §1

[4] = system: NCI-H358 cells (K-Ras G12C); assay: Potency assay: pERK in NCI-H358 cells; assay type: cell-based, human; conditions: Homo sapiens, NCI-H358; H358 KRAS G12C; read-out: pERK EC50
In short: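 pERK decrease read by AlphaLISA SureFire p-ERK1/2 or In-Cell Western after 4 h compound exposure at 37 °C, 5% CO2.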

[5] = molecular target: NRAS G12C (Homo sapiens (Human), UniProt P01111+P62937, G12C); assay: Ras-Raf (BRAF RBD) disruption / FRET / MOA assay, NRAS G12C; assay type: biochemical; conditions: read-out: IC50* NRAS G12C FRET data
In short: as §1

[6] = molecular target: KRAS G12S (Homo sapiens (Human), UniProt P01116+P62937, G12S); assay: Ras-Raf (BRAF RBD) disruption / FRET / MOA assay, KRAS G12S; assay type: biochemical; conditions: Ras-Raf disruption/FRET/MOA assay; class symbols; read-out: KRAS G12S FRET data IC50
In short: as §1

[7] = molecular target: K-Ras G12C (Homo sapiens (Human), UniProt P01116+P62937, G12C); assay: Ras-Raf (BRAF RBD) disruption / FRET / MOA assay, KRAS G12C; assay type: biochemical; conditions: KRAS G12C; Ras-Raf disruption/FRET/MOA assay; read-out: IC50* KRAS G12C FRET data
In short: as §1

[8] = molecular target: KRAS WT (Homo sapiens (Human), UniProt P01116+P62937); assay: Ras-Raf (BRAF RBD) disruption / FRET / MOA assay, KRAS WT; assay type: biochemical; conditions: read-out: IC50* KRAS WT FRET data
In short: as §1

[9] = molecular target: K-Ras G13C (Homo sapiens (Human), UniProt P01116+P62937, G13C); assay: Ras-Raf (BRAF RBD) disruption / FRET / MOA assay, KRAS G13C; assay type: biochemical; conditions: KRAS G13C; Ras-Raf disruption/FRET/MOA assay; read-out: IC50* KRAS G13C FRET data
In short: as §1

[10] = system: NCI-H358 (K-Ras G12C); assay: CellTiter-Glo cell viability assay, NCI-H358; assay type: cell-based, human; conditions: NCI-H358, 5-day treatment, class symbols, read-out: Additional H358 Cell Viability assay data (K-Ras G12C, IC50)
In short: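 Compounds dispensed directly onto seeded K-Ras mutant cells; plates read on day 5 after ~30 min equilibration to room temperature, by CellTiter-Glo luminescence. Signal normalized as (sample/mean DMSO)×100, then fitted to a four-parameter logistic curve.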

Chain of KRAS G12S (P01116-2 other isoform, or with tags, fused parts or gaps G12S): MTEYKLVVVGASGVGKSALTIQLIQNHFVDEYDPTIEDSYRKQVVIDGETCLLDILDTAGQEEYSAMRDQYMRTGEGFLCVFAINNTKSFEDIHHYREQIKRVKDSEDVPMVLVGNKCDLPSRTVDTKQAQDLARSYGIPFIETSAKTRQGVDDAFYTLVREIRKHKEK
Chain of KRAS G12S (P62937 whole entry): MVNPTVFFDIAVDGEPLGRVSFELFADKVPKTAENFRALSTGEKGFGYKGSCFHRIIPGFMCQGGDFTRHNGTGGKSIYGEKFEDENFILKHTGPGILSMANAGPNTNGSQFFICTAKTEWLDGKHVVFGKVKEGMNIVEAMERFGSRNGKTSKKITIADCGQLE
Chain of K-Ras G12C (P01116-2 other isoform, or with tags, fused parts or gaps G12C): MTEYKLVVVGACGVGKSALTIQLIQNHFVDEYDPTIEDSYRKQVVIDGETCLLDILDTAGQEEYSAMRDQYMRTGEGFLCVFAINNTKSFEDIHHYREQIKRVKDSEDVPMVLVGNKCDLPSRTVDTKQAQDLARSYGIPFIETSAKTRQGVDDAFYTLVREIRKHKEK
Chain of K-Ras G12C (P62937 whole entry): as the sequence (P62937 whole entry) above
Chain of KRAS G12V (P01116-2 other isoform, or with tags, fused parts or gaps G12V): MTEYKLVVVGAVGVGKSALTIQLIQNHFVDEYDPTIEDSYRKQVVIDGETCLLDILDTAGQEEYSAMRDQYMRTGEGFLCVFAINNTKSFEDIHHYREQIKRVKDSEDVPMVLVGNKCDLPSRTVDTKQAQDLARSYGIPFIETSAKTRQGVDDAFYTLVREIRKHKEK
Chain of KRAS G12V (P62937 whole entry): as the sequence (P62937 whole entry) above
Chain of NRAS G12C (P01111 whole entry G12C): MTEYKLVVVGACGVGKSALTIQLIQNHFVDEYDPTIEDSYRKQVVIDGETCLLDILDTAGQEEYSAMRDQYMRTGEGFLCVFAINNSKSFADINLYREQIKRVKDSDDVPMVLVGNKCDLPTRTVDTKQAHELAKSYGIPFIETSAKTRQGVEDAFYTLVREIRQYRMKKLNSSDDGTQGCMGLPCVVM
Chain of NRAS G12C (P62937 whole entry): as the sequence (P62937 whole entry) above
Chain of KRAS G13D (P01116-2 other isoform, or with tags, fused parts or gaps G13D): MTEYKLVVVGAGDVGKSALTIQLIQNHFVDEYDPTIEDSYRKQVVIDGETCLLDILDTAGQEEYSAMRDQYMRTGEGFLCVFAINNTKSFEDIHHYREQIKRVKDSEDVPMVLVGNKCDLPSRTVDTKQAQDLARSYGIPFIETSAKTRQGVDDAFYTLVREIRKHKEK
Chain of KRAS G13D (P62937 whole entry): as the sequence (P62937 whole entry) above
Chain of K-Ras G13C (P01116-2 other isoform, or with tags, fused parts or gaps G13C): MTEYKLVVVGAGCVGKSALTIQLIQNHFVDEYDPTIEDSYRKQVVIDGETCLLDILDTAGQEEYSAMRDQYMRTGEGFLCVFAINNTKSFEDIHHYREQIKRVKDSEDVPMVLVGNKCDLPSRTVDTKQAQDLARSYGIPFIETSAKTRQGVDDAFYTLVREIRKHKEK
Chain of K-Ras G13C (P62937 whole entry): as the sequence (P62937 whole entry) above
Chain of KRAS WT (P01116-2 other isoform, or with tags, fused parts or gaps): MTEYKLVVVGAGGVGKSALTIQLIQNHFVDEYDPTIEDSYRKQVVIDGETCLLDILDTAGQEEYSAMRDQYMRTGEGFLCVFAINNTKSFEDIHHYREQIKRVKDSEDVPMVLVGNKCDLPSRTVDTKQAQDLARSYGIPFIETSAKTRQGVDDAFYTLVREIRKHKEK
Chain of KRAS WT (P62937 whole entry): as the sequence (P62937 whole entry) above
Chain of KRAS G12D (P01116-2 other isoform, or with tags, fused parts or gaps G12D): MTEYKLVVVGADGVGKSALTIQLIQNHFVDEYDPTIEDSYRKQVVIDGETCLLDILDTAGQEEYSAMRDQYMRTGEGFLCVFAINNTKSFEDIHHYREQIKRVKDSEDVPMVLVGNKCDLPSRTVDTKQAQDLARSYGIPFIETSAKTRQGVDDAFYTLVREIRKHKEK
Chain of KRAS G12D (P62937 whole entry): as the sequence (P62937 whole entry) above

Row | SMILES | IC50 [1] | IC50 [2] | IC50 [3] | EC50 [4] | IC50 [5] | IC50 [6] | IC50 [7] | IC50 [8] | IC50 [9] | IC50 ([10]; Homo sapiens, NCI-H358, 120 h) | IC50 [10]
1 | C=CC(=O)N1C[C@@H](C)[C@H](C(=O)N(C)[C@H](C(=O)N[C@H]2Cc3cccc(c3)-c3ccc4c(c3)c(c(-c3cccnc3[C@H](C)OC)n4CC)CC(C)(C)COC(=O)[C@@H]3CCCN(N3)C2=O)C(C)C)C1 (atropisomer, axis not shown) [Example A497] | > 10 µM | > 10 µM | > 10 µM | < 5 µM | 0.1 to 1 µM | > 10 µM | 0.1 to 1 µM | 1 to 10 µM | 0.1 to 1 µM | 0.01 to 0.1 µM | –
2 | CCn1c(-c2cccnc2[C@H](C)OC)c2c3cc(ccc31)-c1cccc(c1)C[C@H](NC(=O)[C@H](C(C)C)N(C)C(=O)[C@H]1CCN(C(=O)C#CC3(N(C)C)CN(C)C3)C1)C(=O)N1CCC[C@H](N1)C(=O)OCC(C)(C)C2 (atropisomer, axis not shown) [Example A499] | 1 to 10 µM | 1 to 10 µM | 1 to 10 µM | < 5 µM | 0.01 to 0.1 µM | 1 to 10 µM | 0.01 to 0.1 µM | 1 to 10 µM | 1 to 10 µM | 0.01 to 0.1 µM | –
3 | C=CC(=O)N1CC[C@](F)(C(=O)N(C)[C@H](C(=O)N[C@H]2Cc3cccc(c3)-c3ccc4c(c3)c(c(-c3cccnc3[C@H](C)OC)n4CC)CC(C)(C)COC(=O)[C@@H]3CCCN(N3)C2=O)C(C)C)C1 (atropisomer, axis not shown) [Example A501] | 1 to 10 µM | 1 to 10 µM | 1 to 10 µM | < 5 µM | 0.01 to 0.1 µM | 1 to 10 µM | 0.01 to 0.1 µM | 0.1 to 1 µM | 0.1 to 1 µM | 0.01 to 0.1 µM | –
4 | CC#CC(=O)N1CC[C@]2(CCN([C@H](C(=O)N[C@H]3Cc4nc(cs4)-c4ccc5c(c4)c(c(-c4cccnc4[C@H](C)OC)n5CC)CC(C)(C)COC(=O)[C@@H]4CCCN(N4)C3=O)C(C)C)C2=O)C1 (atropisomer, axis not shown) [Example A511] | > 10 µM | 1 to 10 µM | 1 to 10 µM | < 5 µM | 0.1 to 1 µM | 1 to 10 µM | 0.1 to 1 µM | 1 to 10 µM | 1 to 10 µM | < 0.01 µM | –
5 | C=CC(=O)N1CC[C@H](C(=O)N(C)[C@H](C(=O)N[C@H]2Cc3cccc(c3)-c3ccc4c(c3)c(c(-c3cccnc3[C@@H]3CCCO3)n4CC)CC(C)(C)COC(=O)[C@@H]3CCCN(N3)C2=O)C(C)C)C1 (atropisomer, axis not shown) [Example A512] | > 10 µM | 1 to 10 µM | > 10 µM | < 5 µM | 0.1 to 1 µM | 1 to 10 µM | 0.1 to 1 µM | 1 to 10 µM | 1 to 10 µM | 0.01 to 0.1 µM | –
6 | C=CC(=O)N1CC[C@H](C(=O)N(C)[C@H](C(=O)N[C@H]2Cc3cccc(c3)-c3ccc4c(c3)c(c(-c3cc(C5=CCN(C)CC5)cnc3[C@H](C)OC)n4CC)CC(C)(C)COC(=O)[C@@H]3CCCN(N3)C2=O)C(C)C)C1 (atropisomer, axis not shown) [Example A513] | 1 to 10 µM | 1 to 10 µM | 1 to 10 µM | < 5 µM | 0.01 to 0.1 µM | 1 to 10 µM | 0.01 to 0.1 µM | 1 to 10 µM | 0.1 to 1 µM | – | < 0.01 µM
7 | C=CC(=O)N1CC(F)(C(=O)N(C)[C@H](C(=O)N[C@H]2Cc3cccc(c3)-c3ccc4c(c3)c(c(-c3cccnc3[C@H](C)OC)n4CC)CC(C)(C)COC(=O)[C@@H]3CCCN(N3)C2=O)C(C)C)C1 (atropisomer, axis not shown) [Example A517] | 1 to 10 µM | 0.1 to 1 µM | 1 to 10 µM | < 5 µM | 0.01 to 0.1 µM | 0.1 to 1 µM | 0.01 to 0.1 µM | 0.1 to 1 µM | 0.01 to 0.1 µM | < 0.01 µM | –
8 | C=CC(=O)N1CCC(F)(C(=O)N(C)[C@H](C(=O)N[C@H]2Cc3cccc(c3)-c3ccc4c(c3)c(c(-c3cccnc3[C@H](C)OC)n4CC)CC(C)(C)COC(=O)[C@@H]3CCCN(N3)C2=O)C(C)C)CC1 (atropisomer, axis not shown) [Example A518] | 1 to 10 µM | 0.1 to 1 µM | 0.1 to 1 µM | < 5 µM | 0.01 to 0.1 µM | 0.1 to 1 µM | 0.01 to 0.1 µM | 0.1 to 1 µM | 0.1 to 1 µM | < 0.01 µM | –
9 | C=CC(=O)Nc1cnc(C(=O)N(C)[C@H](C(=O)N[C@H]2Cc3cccc(c3)-c3ccc4c(c3)c(c(-c3cccnc3[C@H](C)OC)n4CC)CC(C)(C)COC(=O)[C@@H]3CCCN(N3)C2=O)C(C)C)n1C (atropisomer, axis not shown) [Example A524] | > 10 µM | > 10 µM | > 10 µM | < 5 µM | 0.1 to 1 µM | > 10 µM | 0.1 to 1 µM | > 10 µM | 0.1 to 1 µM | 0.01 to 0.1 µM | –
10 | C#CCn1c(-c2cccnc2[C@H](C)OC)c2c3cc(ccc31)-c1cccc(c1)C[C@H](NC(=O)[C@H](C(C)C)N(C)C(=O)[C@H]1CCN(C(=O)C=C)C1)C(=O)N1CCC[C@H](N1)C(=O)OCC(C)(C)C2 (atropisomer, axis not shown) [Example A530] | > 10 µM | 1 to 10 µM | > 10 µM | < 5 µM | 0.1 to 1 µM | 1 to 10 µM | 0.1 to 1 µM | 1 to 10 µM | 1 to 10 µM | 0.01 to 0.1 µM | –
11 | CCn1c(-c2cccnc2[C@H](C)OC)c2c3cc(ccc31)-c1cccc(c1)C[C@H](NC(=O)[C@H](C(C)C)N(C)C(=O)[C@H]1CCN(C(=O)C#CC3(N(C)C)CCOCC3)C1)C(=O)N1CCC[C@H](N1)C(=O)OCC(C)(C)C2 (atropisomer, axis not shown) [Example A532] | > 10 µM | 1 to 10 µM | > 10 µM | < 5 µM | 0.01 to 0.1 µM | 1 to 10 µM | 0.01 to 0.1 µM | 1 to 10 µM | 1 to 10 µM | < 0.01 µM | –
12 | CC#CC(=O)N1CC[C@@]2(CCN([C@H](C(=O)N[C@H]3Cc4nc(cs4)-c4ccc5c(c4)c(c(-c4cccnc4[C@H](C)OC)n5CC)CC(C)(C)COC(=O)[C@@H]4CCCN(N4)C3=O)C(C)C)C2=O)C1 (atropisomer, axis not shown) [Example A535] | > 10 µM | > 10 µM | > 10 µM | < 5 µM | 1 to 10 µM | 1 to 10 µM | 1 to 10 µM | > 10 µM | 1 to 10 µM | 0.01 to 0.1 µM | –

From patent US11566007B2, “Ras inhibitors” (Revolution Medicines, Inc., priority 2019, dated 2023)
